Data: patent US7563774B2, “Combination of FBPase inhibitors and antidiabetic agents useful for the treatment of diabetes” (Metabasis Therapeutics, Inc., priority 2000, dated 2009)

What was measured:
rat hepatocytes = experiment: Glucose production and fructose-1,6-bisphosphate levels in rat hepatocytes (Example D); format: cell-based
Method: Hepatocytes were prepared from fed Sprague-Dawley rats (250-300 g) according to the procedure of Berry and Friend (Berry, M. N., Friend, D. S., 1969, J. Cell. Biol. 43, 506-520) as modified by Groen (Groen, A. K., Sips, H. J., Vervoom, R. C., Tager, J. M., 1982, Eur. J. Biochem. 122, 87-93). Hepatocytes (75 mg wet weight/mL) were incubated in 1 mL Krebs-bicarbonate buffer containing 10 mM Lactate, 1 mM pyruvate, 1 mg/mL BSA, and test compound concentrations from 0 to 500 μM. Incubations were carried out in a 95% oxygen, 5% carbon dioxide atmosphere in closed, 50-mL Falcon tubes submerged in a rapidly shaking water bath (37° C.). After 1 hour, an aliquot (0.25 mL) was removed, transferred to an Eppendorf tube and centrifuged. 50 μL of supernatant was then assayed for glucose content using a Sigma Glucose Oxidase kit as per the manufacturer's instructions.
Rat hepatocytes were isolated and incubated as described in Example C. Cell extracts, were analyzed for glucose content as described in Example C, and also for fructose 1,6-bisphosphate. Fructose 1,6-bisphosphate was assayed spectrophotometrically by coupling its enzymatic conversion to glycerol 3-phosphate to the oxidation of NADH, which was monitored at 340 nm. Reaction mixtures (1 mL) consisted of 200 mM Tris-HCl, pH 7.4, 0.3 mM NADH, 2 units/mL glycerol 3-phosphate dehydrogenase, 2 units/ml triosephosphate isomerase, and 50-100 μL cell extract. After a 30 minute preincubation at 37° C., 1 unit/ml of aldolase was added and the change in absorbance measured until a stable value was obtained. 2 moles of NADH are oxidized in this reaction per mole of fructose 1,6-bisphosphate present in the cell extract.

Sprague-Dawley rats [1] = experiment: Glucose lowering, hepatic and plasma drug levels after intraperitoneal dosing of normal fasted rats (Example F); format: in vivo, rat; conditions: 1 hour post injection
Method: Sprague-Dawley rats (250-300 g) were fasted for 18 hours and then dosed intraperitoneally either with saline or FBPase inhibitor. The vehicle used for drug administration was 10 mM bicarbonate. One hour post injection, rats were anesthetized with halothane, and liver and blood samples were taken and processed as described in Example E. The neutralized liver extracts were analyzed for FBPase inhibitor content by HPLC. A reverse phase YMC ODS AQ column (250×4.6 […]) was used and eluted with a gradient from 10 mM sodium phosphate pH 5.5 to 75% acetonitrile. Absorbance was monitored at 310 nm. Glucose was measured in the blood sample as described in Example C. Plasma was prepared by centrifugation and extracted by addition of methanol to 60% (v/v). The methanolic extract was clarified by centrifugation and filtration and then analyzed by HPLC as described above.

[2] = test system: gluconeogenesis in rat hepatocytes; experiment: Inhibition of gluconeogenesis in rat hepatocytes (Example C); format: cell-based; conditions: Hepatocyte, glucose production from lactate/pyruvate, 1 hour
Method: Hepatocytes (75 mg wet weight/mL) were incubated in 1 mL Krebs-bicarbonate buffer containing 10 mM Lactate, 1 mM pyruvate, 1 mg/mL BSA, and test compound concentrations from 0 to 500 μM. […] After 1 hour, an aliquot (0.25 mL) was removed, transferred to an Eppendorf tube and centrifuged. 50 μL of supernatant was then assayed for glucose content using a Sigma Glucose Oxidase kit as per the manufacturer's instructions.

Sprague-Dawley rats [3] = experiment: Drug metabolite levels, blood glucose and hepatic fructose 1,6-bisphosphate after Compound A p.o. in rats (Example E); format: in vivo, rat
Method: Compound A was administered by oral gavage to freely-feeding Sprague Dawley rats (250-300 g). The compound was prepared as a suspension in carboxymethylcellulose, and administered at a dose of 250 mg/kg. For the determination of liver metabolites, rats were serially sacrificed over the course of 24 hours after drug administration. Livers were freeze-clamped, homogenized in perchloric acid, neutralized, and then analyzed for Compound B by anion exchange HPLC.
For the determination of plasma metabolites, rats were instrumented with carotid catheters prior to oral dosing. Blood samples were withdrawn via the catheters at appropriate time points over the course of 8 hours post drug administration. Plasma was prepared from the blood samples by centrifugation, and plasma protein precipitated by the addition of methanol to 60%. Compound A metabolites were quantitated by reverse phase HPLC in the deproteinated plasma samples. A C18 column (1.4 cm×250 mm) was equilibrated with 10 mM sodium phosphate, pH 5.5 and eluted with a gradient from this buffer to acetonitrile. Detection was at 254 nm.
The effect of Compound A on blood glucose and hepatic fructose 1,6-bisphosphate levels was determined in 18-hour fasted Sprague-Dawley rats (250-300 g). Animals were dosed as described above. At appropriate time points post drug administration, rats were anesthetized with halothane and a liver biopsy (approx. 1 g) was taken, as well as a blood sample (2 mL) from the posterior vena cava. A heparin flushed syringe and needle was used for blood collection. The liver sample was immediately homogenized in ice-cold 10% perchloric acid (3 mL), centrifuged, and the supernatant neutralized with ⅓ rd volume of 3 M KOH/[…]. Following centrifugation and filtration, the neutralized extract was analyzed for fructose 1,6-bisphosphate content as described for isolated hepatocytes in Example C. Blood glucose was measured by means of a Hemocue analyzer (Hemocue Inc, Mission Viejo, Calif.).

[4] = single 250 mg/kg dose p.o., 18-hour fasted rats

## CCc1cc(F)c(N)c2nc(-c3ccc(P(=O)(O)O)o3)n(CC(C)C)c12 [Compound E]
Rat hepatocytes
  intracellular fructose 1,6-bisphosphate: dose-dependent elevation
Sprague-Dawley rats [1]
  Liver conc.: 38.4 nmol/g

## CC(=O)OC[C@H]1O[C@@H](n2cnc(C(N)=O)c2Br)[C@H](OC(C)=O)[C@@H]1OC(C)=O [Compound A]
[2]
  IC50: 50 µM
Rat hepatocytes
  intracellular fructose 1,6-bisphosphate: dose-dependent elevation
Rat hepatocytes; Hepatocyte, read-out: IC50, inhibition of glucose production
  IC50: 50 µM
Sprague-Dawley rats [3]; Compound A 250 mg/kg p.o., over 8 hours
  plasma metabolites: rapidly deacetylated at all three positions
Sprague-Dawley rats [3]; Compound A 250 mg/kg p.o., over 24 hours
  liver metabolites: efficiently converted to Compound B
Sprague-Dawley rats [3]; [4]
  duration of blood glucose lowering: approximately 8 hours
  hepatic fructose-1,6-bisphosphate levels: elevation of hepatic fructose-1,6-bisphosphate levels
